Laboratory results published in US20040266863A1, “Use of (11beta,17beta)-11-(1,3-benzodioxol-5-yl)-17-hydroxy-17-(1-propynyl)-estra-4,9-dien-3-one in the treatment of major depressive disorder” (priority 2001, published 2004).

How the values were obtained:
glucocorticoid receptor = target: T1, glucocorticoid receptor (Homo sapiens, UniProt P04150); experiment: in vitro binding to the glucocorticoid receptor
T1 sequence (P04150 1-777): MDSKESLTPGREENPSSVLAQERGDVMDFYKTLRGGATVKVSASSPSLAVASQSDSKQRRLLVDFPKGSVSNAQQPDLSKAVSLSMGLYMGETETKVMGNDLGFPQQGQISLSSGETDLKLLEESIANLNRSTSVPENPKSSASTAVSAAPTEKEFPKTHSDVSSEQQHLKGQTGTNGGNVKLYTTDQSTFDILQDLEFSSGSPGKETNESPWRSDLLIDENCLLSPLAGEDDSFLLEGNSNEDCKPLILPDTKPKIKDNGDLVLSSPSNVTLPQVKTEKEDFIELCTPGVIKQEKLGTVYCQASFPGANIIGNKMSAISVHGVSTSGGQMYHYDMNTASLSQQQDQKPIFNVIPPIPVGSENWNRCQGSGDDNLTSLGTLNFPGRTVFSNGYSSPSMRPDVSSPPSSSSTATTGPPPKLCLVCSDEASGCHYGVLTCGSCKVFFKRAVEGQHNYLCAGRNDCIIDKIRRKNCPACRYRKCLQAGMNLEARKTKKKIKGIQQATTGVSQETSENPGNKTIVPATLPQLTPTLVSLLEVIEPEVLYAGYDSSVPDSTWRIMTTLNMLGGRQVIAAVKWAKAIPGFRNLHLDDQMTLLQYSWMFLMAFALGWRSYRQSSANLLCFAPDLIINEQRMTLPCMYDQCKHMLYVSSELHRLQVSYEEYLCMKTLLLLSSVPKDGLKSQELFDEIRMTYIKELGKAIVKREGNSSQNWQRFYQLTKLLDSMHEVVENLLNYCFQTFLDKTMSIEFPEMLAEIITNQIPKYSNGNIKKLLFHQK

[1] = tested on: immature dexamethasone treated male rats; experiment: in vivo antiglucocorticoid activity in immature dexamethasone treated male rats (procedure of Kloosterboer et al); set-up: species or system rat; conditions: for threshold dose for demonstrating in vivo antiglucocorticoid effects: rat
(healthy) humans = experiment: clinical study of antiglucocorticoid activity in healthy humans (cortisol increase, dexamethason antagonism); assay type: in vivo, human
[2] = tested on: depressed patients (Major Depressive Disorder); experiment: double blind, 4 week, paroxetine controlled study in patients with Major Depressive Disorder (HAMD-21); assay type: in vivo, human; conditions: for difference on the Hamilton scale versus paroxetine (onset of antidepressant effect): 150 mg treatment group
Method: A double blind, 4 week, paroxetine controlled study of Org 34517 in depressed patients was carried out. Paroxetine is a selective serotonin re-uptake inhibitor which is recognized as an effective antidepressant for major depression.
Patients were randomly allocated to one of three treatment groups. Group I patients (Org 150 group: 50 patients) received 2 capsules with 75 mg of Org 34517 and one placebo (total daily dose 150 mg) for the first 2 weeks and 2 capsules with 75 mg Org 34517 and 1 capsule with 150 mg (total daily dose 300 mg) the next 2 weeks; Group II patients (Org 450 group: 46 patients) received 3 capsules with 150 mg Org 34517 (total daily dose 450 mg) in the first 2 weeks and 4 capsules of Org 34517 (total daily dose 600 mg) in the next 2 weeks; Group III patients (paroxetine group: 44 patients) received 2 capsules with 10 mg paroxetine and one placebo capsule (total daily dose 20 mg) for the first 2 weeks, followed by 2 capsules of 10 mg and one capsule of 20 mg paroxetine (total daily dose 40 mg) in the next 2 weeks. Medication was administered orally in the morning. Efficacy assessment was done on days 4, 7, 10, 14, 21, 28 and 35 by using the 21-item HAMD scale.
Afternoon cortisol plasma levels (ACT=afternoon cortisol test) were measured as described by Halbreich et al (J. Clin. Endocrinol. Metab. 54(6), 1262, 1982).

[3] = tested on: patients with psychotic major depression; conditions: 8-12 mg/kg/day over 4 days (WO 99/17779); cited from earlier work

CC#C[C@]1(O)CC[C@H]2[C@@H]3CCC4=CC(=O)CCC4=C3[C@@H](c3ccc4c(c3)OCO4)C[C@@]21C [Org 34517, (11β,17β)-11-(1,3-benzodioxol-5-yl)-17-hydroxy-17-(1-propynyl)estra-4,9-dien-3-one]
potency in in vitro binding to the glucocorticoid receptor, relative to mifepristone (glucocorticoid receptor): 52% | antiglucocorticoid activity: effect (weight gain) on body weight, adrenals, thymus and spleen ([1]; orally applied, 10 mg/kg to 40 mg/kg, immature dexamethasone treated male rats): proved to increase with the dose | threshold dose for demonstrating in vivo antiglucocorticoid effects [1]: 20 mg/kg | antiglucocorticoid potency relative to mifepristone, estimated on the amount of dexamethason antagonism ((healthy) humans): 17% | antiglucocorticoid potency relative to mifepristone, estimated on the basis of the cortisol increase ((healthy) humans): 10-25% | difference on the Hamilton scale versus paroxetine (onset of antidepressant effect) ([2]; all patients, day 10, FIG. 1): ~2 point | onset of antidepressant effect ([2]; daily dosage not exceeding 300 mg compared with 450 mg or more): fast onset of antidepressant effect | difference on the Hamilton scale versus paroxetine (onset of antidepressant effect) ([2]; dexamethason non-suppressors, day 10, FIG. 3): ~6 point | difference on the Hamilton scale versus paroxetine (onset of antidepressant effect) ([2]; patients with afternoon plasma cortisol higher than 10 μg/dl at start, day 10, FIG. 2): ~4 point

CC#C[C@]1(O)CC[C@H]2[C@@H]3CCC4=CC(=O)CCC4=C3[C@@H](c3ccc(N(C)C)cc3)C[C@@]21C [mifepristone, 17β-hydroxy-11β-(4-dimethylaminophenyl)-17α-(1-propynyl)estra-4,9-dien-3-one, reference compound]
threshold dose for demonstrating in vivo antiglucocorticoid effects [1]: 5 mg/kg | treatment of psychosis associated with psychotic major depression [3]: effective
